Results reported in patent US9241942B2, “IRE-1α inhibitors” (MannKind Corporation, priority 2007, dated 2016).

Key:
RNase T1 = RNase T1 (Aspergillus oryzae (strain ATCC 42149 / RIB 40) (Yellow koji mold), UniProt P00651); test: T1 RNase assay with mini-XBP-1 mRNA stem-loop substrate; assay type: biochemical; conditions: 2.5 μM test compound
Method: T1 RNase was assayed as follows. Five μl of a reaction mixture comprising 1× reaction buffer (5× reaction buffer is 100 mM Hepes pH 7.5, 250 mM KOAc, 2.5 mM MgCl2), 3 mM DTT, and 0.4% polyethylene glycol water were added to each well of 384 well plates. Twenty-five nanoliters of a 1 mM test compound solution were added to test wells. Three μl of a 1/48,000 dilution of an approximately 200,000 U/ml RNase T1 (Worthington) preparation were added to each test well and to positive control wells (final concentration 49.5 pg/well). Negative control wells contained only reaction mixture and test compound.
After spinning the plates at 1200 rpm for 30 seconds, 3 μl of the mini-XBP-1 mRNA stem-loop substrate described in Example 1 were added to each well of a control plate. The plates were again spun at 1200 rpm for 30 seconds. Final concentrations for the assay were: 63 nM substrate, 49.5 pg RNase T1, and 2.5 μM test compound.
The plates were covered with lids and incubated for one hour at 30° C. The plates were then transferred to an ACQUEST™ microplate reader. Data was analyzed using data analysis software. The percent activity of RNase T1 was calculated.

RNase A = RNase A (Bos taurus (Bovine), UniProt P61823); test: RNase A assay with mini-XBP-1 mRNA stem-loop substrate; assay type: biochemical; conditions: 2.5 μM test compound
Method: RNase A was assayed as described for RNase T1. Final concentrations for the assay were: 63 nM substrate, 0.4 pg RNase A (Qiagen; 100 mg/ml or 7000 U/ml), and 2.5 μM test compound.

human IRE-1α = human IRE-1α (Homo sapiens (Human), UniProt O75460); test: IRE-1α assay: cleavage of mini-XBP-1 mRNA stem-loop substrate by GST-IRE-1α in vitro; assay type: biochemical; conditions: values in text
Method: A fusion protein comprising glutathione S transferase (GST) and human IRE-1α (GST-IRE-1α) was obtained from a 500 ml baculovirus-infected insect cell culture and used to measure IRE-1α activity in vitro.
Five μl of a reaction mixture comprising 1× reaction buffer (5× reaction buffer is 100 mM Hepes pH 7.5, 250 mM KOAc, 2.5 mM MgCl2), 3 mM DTT, and 0.4% polyethylene glycol water were added to each well of 384 well plates. Twenty-five nanoliters of a 1 mM test compound solution were added to test wells. […] Negative control wells contained only reaction mixture and test compound.
The plates were again spun at 1200 rpm for 30 seconds.
The plates were covered with lids and incubated for one hour at 30° C. The plates were then transferred to an ACQUEST™ microplate reader. Data was analyzed using data analysis software, and the percent activity of IRE-1α was calculated.

[1] = system: RPMI-8226 multiple myeloma cells; test: Proliferation of multiple myeloma cells (CellTiter-Glo); assay type: cell-based, human; conditions: 24 hours, 100 μM to 0 μM
Method: FIG. 5. Graph showing inhibition of proliferation of multiple myeloma cells by IRE-1α inhibitor 11-28 (Example 11). RPMI-8226 multiple myeloma cells were seeded at 20,000 cells per well in RPMI culture medium containing 1% FBS and the required antibiotics. The plate was incubated overnight at 37° C., 95% air, 5% CO2. The following day, compound 11-28 or medium alone was added to wells, resulting in a final volume of 100 μl per well. The compound concentration ranged from 100 μM to 0 μM, with compounds diluted by a factor of 4. After addition of compound, the plate was incubated at 37° C., 95% air, 5% CO2 for 24 hours. Cell proliferation was measured using the CellTiter-Glo assay (Promega), following the manufacturer's instructions.
Proliferation assays using myeloma cell lines (U266, RPMI8226 and MM.1s) are used to determine ED50. Compounds are used as single agents and in combination with other chemotherapeutic drugs.

primary murine B cells = test: IgM secretion after LPS stimulation of primary B cells (ELISA); assay type: cell-based, mouse; conditions: added at beginning of stimulation and again at 24 hours, 20 μg/ml LPS, 48 hr
Method: FIG. 9. Inhibition of IgM secretion after LPS stimulation of primary murine B cells with selected IRE-1α inhibitors. […] However, compounds had little effect when at added after 40 hours of stimulation; only slight inhibition at the highest dose. Methods were performed as previously described by Iwakoshi et al., Nature 4, 321-29, 2003 for B cell stimulation, plasma cell differentiation and IgM secretion. Primary B cells were Isolated from BALB/c splenocytes using mouse CD43 Microbeads (Miltenyi cat#130-049-801) with 1×10^6 cells per treatment. Purified B cells were stimulated in B Cell Media at a final density of 1×10^6/ml/well in 24-well plates with 20 μg/ml LPS (Sigma cat#L4391). IRE-1α inhibitor compound 17-1 was added at various concentrations (50 μM, 10 μM, 2 μM, 0.4 μM and 0.08 μM) at specified time points (t=0, t=24 hr, t=40 hr, etc.) Cells were incubated for 48 hr at 37° C. At end of the incubation, cells were spun in a plate at 1500 rpm/3 min. Supernatants were collected for quantitation for IgM secretion using a mouse IgM ELISA Kit (Bethyl Labs cat#E90-101). B Cell medium included RPMI+10% FBS supplemented with NEAA, HEPES, NaPyr, PSQ, and β-mercaptoethanol.

[2] = system: phosphorylated IRE-1α and XBP1-splicing in RPMI8226 cells; test: Western blot and RT-PCR of RPMI8226 cells after 24 hour treatment; assay type: cell-based, human
Text: FIG. 6. […] The numbers indicate the concentration of bortezomib in nM.

RNase A, sequence (P61823 27-150): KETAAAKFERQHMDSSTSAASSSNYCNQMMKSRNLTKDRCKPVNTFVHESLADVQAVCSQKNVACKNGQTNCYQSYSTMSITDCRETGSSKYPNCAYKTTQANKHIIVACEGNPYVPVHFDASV
RNase T1, sequence (P00651 27-130): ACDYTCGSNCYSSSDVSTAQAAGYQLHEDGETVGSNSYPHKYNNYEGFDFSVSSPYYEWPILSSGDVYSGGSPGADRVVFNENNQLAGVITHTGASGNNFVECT
human IRE-1α, sequence (O75460 19-977): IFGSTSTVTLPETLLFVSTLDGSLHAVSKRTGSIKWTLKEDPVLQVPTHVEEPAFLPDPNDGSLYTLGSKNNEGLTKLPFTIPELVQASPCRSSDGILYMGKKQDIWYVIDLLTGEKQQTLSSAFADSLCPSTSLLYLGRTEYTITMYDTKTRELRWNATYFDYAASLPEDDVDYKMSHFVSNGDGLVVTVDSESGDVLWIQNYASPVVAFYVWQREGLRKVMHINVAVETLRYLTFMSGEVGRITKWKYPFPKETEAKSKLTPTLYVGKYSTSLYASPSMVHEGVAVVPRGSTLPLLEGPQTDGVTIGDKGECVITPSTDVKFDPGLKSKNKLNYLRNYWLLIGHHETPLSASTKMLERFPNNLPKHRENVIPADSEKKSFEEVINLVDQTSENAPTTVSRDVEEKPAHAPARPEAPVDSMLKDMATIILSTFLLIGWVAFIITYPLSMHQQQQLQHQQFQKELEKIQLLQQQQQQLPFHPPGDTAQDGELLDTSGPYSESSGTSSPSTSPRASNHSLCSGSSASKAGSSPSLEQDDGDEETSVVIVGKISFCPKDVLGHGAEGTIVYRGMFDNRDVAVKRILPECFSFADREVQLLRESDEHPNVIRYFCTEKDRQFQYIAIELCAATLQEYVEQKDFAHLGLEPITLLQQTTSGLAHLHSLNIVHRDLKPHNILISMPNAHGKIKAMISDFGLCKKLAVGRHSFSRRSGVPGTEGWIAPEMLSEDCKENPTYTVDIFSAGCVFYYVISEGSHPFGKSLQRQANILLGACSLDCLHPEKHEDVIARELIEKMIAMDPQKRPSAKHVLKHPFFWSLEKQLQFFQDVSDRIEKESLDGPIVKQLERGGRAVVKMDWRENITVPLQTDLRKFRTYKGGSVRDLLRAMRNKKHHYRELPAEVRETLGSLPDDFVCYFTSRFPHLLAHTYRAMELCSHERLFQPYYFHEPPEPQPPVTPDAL

SMILES	selectivity for IRE-1 over T1 RNase (RNase T1)	selectivity for IRE-1 over RNase A (RNase A)	further results
CCOc1cccc(C=O)c1O [3-ethoxy o-vanillin, 2-hydroxy-3-ethoxybenzaldehyde]	selective for IRE-1	selective for IRE-1	IC50 (human IRE-1α): 1000 nM
COc1ccc(Br)c(C=O)c1O [6-bromo o-vanillin]	selective for IRE-1	selective for IRE-1	–
COc1cc(-c2cccs2)cc(C=O)c1O [11-28]	–	–	inhibition of proliferation [1]: inhibits the proliferation
CN(C)C(=O)c1ccc(-c2ccc3c(C=O)c(O)ccc3c2)cc1 [17-1, 4-(5-formyl-6-hydroxynaphthalen-2-yl)-N,N-dimethylbenzamide]	–	–	IgM secretion (primary murine B cells): blocked IgM secretion at all doses tested down to 100 nM
CC(C)C[C@H](NC(=O)[C@H](Cc1ccccc1)NC(=O)c1cnccn1)B(O)O [bortezomib, [(1R)-3-methyl-1-[[(2S)-1-oxo-3-phenyl-2-[(pyrazinylcarbonyl)amino]propyl]amino]butyl]boronic acid]	–	–	levels of phosphorylated IRE-1α and XBP1-splicing [2]: increases the levels of phosphorylated IRE-1α and XBP1-splicing
COc1cccc(C=O)c1O [o-vanillin, 2-hydroxy-3-methoxybenzaldehyde]	selective for IRE-1	selective for IRE-1	–
